In paper doi:10.1101/2021.02.09.430557v1 (biorxiv, 2021):

Molecular target: T1, AnHSD (Paenarthrobacter nicotinovorans, UniProt A0ABT9TQY6)
T1 sequence (A0ABT9TQY6 1-348): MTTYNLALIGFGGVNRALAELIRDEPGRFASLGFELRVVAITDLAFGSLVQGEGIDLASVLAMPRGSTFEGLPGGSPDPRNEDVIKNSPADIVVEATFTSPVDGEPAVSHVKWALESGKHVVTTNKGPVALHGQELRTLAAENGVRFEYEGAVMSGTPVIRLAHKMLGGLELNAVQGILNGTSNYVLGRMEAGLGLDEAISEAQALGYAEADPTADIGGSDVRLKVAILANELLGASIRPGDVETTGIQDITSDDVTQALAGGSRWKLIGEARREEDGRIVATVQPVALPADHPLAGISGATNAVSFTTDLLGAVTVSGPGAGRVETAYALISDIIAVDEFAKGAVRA
Assay: residual L-homoserine oxidation activity, absorbance at […] nm
Type: biochemical
Details: read-out: Relative activity (%) at 10 mM

`N[C@@H](CC(=O)O)C(=O)O` [L-aspartate] was tested. Which activity at 10000 µM did it give?
The activity at 10000 µM was 76.7 ± 1.53%.
